In data set [1] the test system is patients with luminal B tumors. As to the kind of experiment: Kaplan Meier analysis of overall survival, FinHER patients with luminal B tumors. In kind it is in vivo, human. Also noted: overall survival: concentration or dose not given beside the values. The note with it: for HR, overall survival: docetaxel vs vinorelbine. The source says: FIG. 10 depicts a Kaplan Meier analysis of the overall survival of patients with luminal B tumors. […] B: en the tumor subtype is defined by IHC, the benefit of docetaxel for luminal B patients cannot be shown (95% vs. 92%, HR 0.617; CI 0.235-1.623).
FIG. 11 depicts a Kaplan Meier analysis of the overall survival of patients with luminal B tumors, adjusted for tumor histologic type by Cox Regression as specified in the SAP. A: The prediction of the docetaxel benefit by RT-qPCR kit remains significant (97% vs. 88%, HR 0.232; CI 0.087-0.624). B: Subtyping by IHC is not predictive for a docetaxel benefit (96% vs. 92%, HR 0.510; CI 0.184-1.414).
(§1) For the evaluation of breast tumors, 855 out of 1010 breast cancer patients of the FinHER study (Joensuu et al. (2006), N Engl J Med, 354:809-820) could be used. The mean cut-off values (given as 40-ΔCT values) were as follows: HER2: 38; ESR1: 34; PGR: 30,2; Ki67: 31.7; and RACGAP1: 34.2. The cut-off values for HER2 and ESR1 were determined based on evaluation of previous studies (Koutras et al. (2008), Brit. J. of Cane., 99:1775-1785; Pentheroudakis et al. (2009), Breast Cancer Res Treat 2009, 116:131-143) using 268 samples and were applied to the FinHER study (proportional hazards model validation). CALM2 served as reference gene.
(§2) FIGS. 10 to 19 depict Kaplan-Meier survival curves for different tumor subtypes (luminal B, HER2-positive, luminal A, and triple-negative breast cancer [TNBC]) treated with different chemotherapy agents (docetaxel or vinorelbine). Subytpes defined by RT-qPCR according to the present invention are shown in panel A, whereas subtypes defined by IHC are shown in panel B. Dotted lines mark the 5 year time point for outcome calculations.

In another data set the test system is luminal B tumor patients. As to the kind of experiment: Kaplan Meier analysis of distant metastasis free survival (DMFS), luminal B tumor patients. In kind it is in vivo, human. The note with it: for distant metastasis free survival: adjusted for number of metastatic lymph nodes, tumor size and histologic type, 5 years; for distant metastasis free survival (DMFS): 5 year time point.
Source text: FIG. 12 depicts a Kaplan Meier analysis of distant metastasis free survival (DMFS) of luminal B tumor patients. A: When defined by RT-qPCR, luminal B patients have a higher probability to remain free of distant metastasis when treated with docetaxel-FEC as compared to vinorelbine-FEC (89% vs. 78% respectively, HR 0.471; CI 0.263-0.843). B: When luminal B tumors are defined by IHC, survival differences are not observed between different treatment regimens (87% vs. 86%, HR 0.938 CI 0.474-1.856).
FIG. 13 depicts a Kaplan Meier analysis of distant metastasis free survival of patients with luminal B tumors, adjusted for number of metastatic lymph nodes, tumor size and histologic type by Cox Regression as specified in the SAP. A: By using the subtyping assay of the present invention the effect remains significant (90 vs. 78%, HR 0.409; CI 0.219-0.764). B: By contrast there is no effect when tumor subtyping occurs by IHC (89% vs. 85%, HR 0.674; CI 0.307-1.481).
as §1, §2

Data set [2] concerns HER2-positive tumor patients. As to the kind of experiment: Kaplan Meier analysis of overall survival, HER2-positive tumor patients. In kind it is in vivo, human. Conditions: for HR, overall survival: docetaxel vs vinorelbine; for overall survival: 5 year time point.
Source text: FIG. 14 depicts a Kaplan Meier analysis of the overall survival of HER2-positive tumor patients. […] B: Similar results are shown for tumors subtyped by IHC (86% vs. 89%, HR 1.175; CI 0.518-2.663).
as §1, §2

The test system of a further data set is HER2-positive tumors. As to the kind of experiment: Kaplan Meier analysis of distant metastasis free survival, HER2-positive tumors. Conditions: for HR, DMFS: docetaxel vs vinorelbine; for distant metastasis free survival: 5 year time point. Type of data set: in vivo, human. The procedure:
FIG. 15 depicts a Kaplan Meier analysis of distant metastasis free survival of HER2-positive tumors.
as §1, §2

A further data set concerns luminal A tumors. Description: Kaplan Meier analysis of overall survival, luminal A tumors. Type of data set: in vivo, human. The note with it: for HR, overall survival: docetaxel vs vinorelbine; for overall survival: 5 year time point.
Source text: FIG. 16 depicts a Kaplan Meier analysis of overall survival of luminal A tumors. […] B: By contrast, when defined by IHC, luminal A patients show a weak, yet non-significant trend towards longer overall survival (97 vs. 93% HR 0.443; CI 0.114-1.716) when treated with docetaxel as compared to vinorelbine.
as §1, §2

The test system of another data set is luminal A tumor patients. As to the kind of experiment: Kaplan Meier analysis of distant metastasis free survival, luminal A tumor patients. In kind it is in vivo, human. Conditions: for HR, DMFS: docetaxel vs vinorelbine; for distant metastasis free survival: 5 year time point. The procedure: FIG. 17 depicts a Kaplan Meier analysis of distant metastasis free survival of luminal A tumor patients.
as §1, §2

Data set [3] concerns TNBC tumor patients. As to the kind of experiment: Kaplan Meier analysis of overall survival, TNBC tumor patients. Conditions: for HR, overall survival: docetaxel vs vinorelbine; for overall survival: 5 year time point. Type of data set: in vivo, human.
Source text: FIG. 18 depicts a Kaplan Meier analysis of overall survival of TNBC tumor patients. […] B: When defined by IHC, TNBC patients show a weak, yet non-significant trend towards longer overall survival (88% vs. 80%, HR 0.552; CI 0.207-1.472).
as §1, §2

Data set [4] relates to TNBC tumor patients. As to the kind of experiment: Kaplan Meier analysis of distant metastasis free survival, TNBC tumor patients. In kind it is in vivo, human. Conditions: for distant metastasis free survival: 5 year time point; for HR, DMFS: docetaxel vs vinorelbine.
Source text: FIG. 19 depicts a Kaplan Meier analysis of distant metastasis free survival of TNBC tumor patients. […] B: IHC-defined TNBC patients show a weak, yet non-significant trend towards longer distant metastasis free survival (82% vs. 72%, HR 0.615; CI 0.284-1,333) when treated with docetaxel as compared to vinorelbine.
as §1, §2

For data set [5] the following is noted: FinHER clinical trial; docetaxel compared with vinorelbine; cited from earlier work.
The mark [6] stands for this setting: FIG. 10B, luminal B defined by IHC, 5 year time point.
Where [7] appears, read: FIG. 11A, luminal B by RT-qPCR, adjusted for tumor histologic type by Cox Regression, 5 years.
[8] abbreviates: FIG. 11B, luminal B by IHC, adjusted for tumor histologic type by Cox Regression, 5 years.
The mark [9] stands for this setting: FIG. 14A, HER2-positive defined by RT-qPCR.
Setting [10] is: FIG. 14B, HER2-positive subtyped by IHC.
Where [11] appears, read: FIG. 15A, HER2-positive defined by method of the invention (RT-qPCR).
[12] abbreviates: FIG. 15B, HER2-positive defined by IHC.
The mark [13] stands for this setting: FIG. 16A, luminal A defined by RT-qPCR.
The mark [14] stands for this setting: FIG. 16B, luminal A defined by IHC.
Where [15] appears, read: FIG. 17A, luminal A defined by RT-qPCR.
The mark [16] stands for this setting: FIG. 17B, luminal A IHC-subtyped.
Where [17] appears, read: FIG. 18A, TNBC defined by RT-qPCR.
Setting [18] is: FIG. 10A, luminal B defined by RT-qPCR, 5 year time point, combined with FEC.
Where [19] appears, read: FIG. 12A, luminal B defined by RT-qPCR.
[20] abbreviates: FIG. 12B, luminal B defined by IHC.

For `CC(=O)O[C@@]12CO[C@@H]1C[C@H](O)[C@@]1(C)C(=O)[C@H](O)C3=C(C)[C@@H](OC(=O)[C@H](O)[C@@H](NC(=O)OC(C)(C)C)c4ccccc4)C[C@@](O)([C@@H](OC(=O)c4ccccc4)[C@H]21)C3(C)C` [docetaxel], the overall survival in [1] (setting [6]) was 95%; in [1] (setting [7]) it was 97%; in data set [1] (setting [8]) it was 96%; in data set [2] (setting [9]), 87%; in data set [2] (setting [10]) it was 86%; in the data set on luminal A tumors (setting [13]), 95%. Besides, the overall survival in the data set with luminal A tumors (setting [14]) came to 97%; in the data set with TNBC tumor patients [3] (setting [17]) it was 84%; with TNBC tumor patients [3] (FIG. 18B, TNBC defined by IHC) it was 88%. In addition, the “HR, overall survival” value in [1] (FIG. 10B, luminal B defined by IHC) is given as 0.617; in [1] (FIG. 11A, luminal B by RT-qPCR, adjusted for tumor histologic type), 0.232; in data set [1] (FIG. 11B, luminal B by IHC, adjusted for tumor histologic type) it was 0.510; in data set [2] (FIG. 14A, HER2-positive by RT-qPCR), 1.320; in data set [2] (FIG. 14B, HER2-positive by IHC), 1.175; in the data set on luminal A tumors (FIG. 16A, luminal A by RT-qPCR), 2.471. The “HR, overall survival” value in the data set with luminal A tumors (FIG. 16B, luminal A by IHC) was determined as 0.443; with TNBC tumor patients [3] (FIG. 18A, TNBC by RT-qPCR), 0.949; in the data set on TNBC tumor patients [3] (FIG. 18B, TNBC by IHC), 0.552. The “benefit of docetaxel treatment” value in data set [1] (luminal B tumors classified by RT-qPCR, FIGS. 10 to 19, vs vinorelbine, combined with FEC) was “significant benefit”. In addition, the “HR, DMFS” value with luminal B tumor patients (FIG. 13A, luminal B by RT-qPCR, adjusted for metastatic lymph nodes, tumor size, histologic type, docetaxel vs vinorelbine) came to 0.409; in the data set on luminal B tumor patients (FIG. 13B, luminal B by IHC, adjusted for metastatic lymph nodes, tumor size, histologic type, docetaxel vs vinorelbine), 0.674; in the data set on HER2-positive tumors (FIG. 15A, HER2-positive by RT-qPCR), 1.070; in the data set with HER2-positive tumors (FIG. 15B, HER2-positive by IHC), 0.975; with luminal A tumor patients (FIG. 17A, luminal A by RT-qPCR), 0.826; in the data set with luminal A tumor patients (FIG. 17B, luminal A by IHC) it was 0.553. Moreover, the “HR, DMFS” value with TNBC tumor patients [4] (FIG. 19A, TNBC by RT-qPCR) is on record as 1.211; in the data set with TNBC tumor patients [4] (FIG. 19B, TNBC by IHC) it was 0.615. Further, the “distant metastasis free survival” value in the data set on luminal B tumor patients (FIG. 13A, luminal B by RT-qPCR) is 90%; in the data set on luminal B tumor patients (FIG. 13B, luminal B by IHC) it was 89%; with HER2-positive tumors (setting [11]), 80%; in the data set on HER2-positive tumors (setting [12]), 78%; in the data set with luminal A tumor patients (setting [15]) it was 92%; in the data set on luminal A tumor patients (setting [16]) it was 93%. Moreover, the “distant metastasis free survival” value is recorded as 74% in the data set with TNBC tumor patients [4] (FIG. 19A, RT-qPCR-defined TNBC) and 82% in the data set with TNBC tumor patients [4] (FIG. 19B, IHC-defined TNBC). In addition, the “outcome compared to vinorelbine” value in the data set on luminal A tumors (luminal A tumors by RT-qPCR, effect does not reach statistical significance) is “even inferior to vinorelbine”. For the same compound, the adverse effects result in [5] was “more commonly associated with adverse effects”.
On to `CCC1=C[C@@H]2CN(C1)Cc1c([nH]c3ccccc13)[C@@](C(=O)OC)(c1cc3c(cc1OC)N(C)[C@H]1[C@@](O)(C(=O)OC)[C@H](OC(C)=O)[C@]4(CC)C=CCN5CC[C@]31[C@@H]54)C2` [vinorelbine], for which the overall survival in [1] (setting [7]) is reported as 88%; in [1] (setting [8]), 92%; in [2] (setting [9]), 91%; in data set [2] (setting [10]) it was 89%; with luminal A tumors (setting [13]) it was 98%; in the data set with luminal A tumors (setting [14]), 93%. The overall survival in the data set on TNBC tumor patients [3] (setting [17]) is recorded as 83%; in the data set on TNBC tumor patients [3] (FIG. 18B, TNBC defined by IHC) it was 80%. For the same compound, the “distant metastasis free survival” value in the data set with luminal B tumor patients (FIG. 13A, luminal B by RT-qPCR) is listed as 78%; in the data set with luminal B tumor patients (FIG. 13B, luminal B by IHC), 85%; in the data set on HER2-positive tumors (setting [11]), 81%; with HER2-positive tumors (setting [12]), 77%; in the data set with luminal A tumor patients (setting [15]), 90%; in the data set with luminal A tumor patients (setting [16]), 88%. The “distant metastasis free survival” value with TNBC tumor patients [4] (FIG. 19A, RT-qPCR-defined TNBC) worked out at 78%; with TNBC tumor patients [4] (FIG. 19B, IHC-defined TNBC) it was 72%.
For docetaxel, the overall survival in data set [1] (setting [18]) came to 97%. The “Hazard Ratio [HR], overall survival” value in data set [1] (FIG. 10A, luminal B defined by RT-qPCR, docetaxel-FEC vs vinorelbine-FEC) is on record as 0.241. For the same compound, the “distant metastasis free survival (DMFS)” value was found to be 89% with luminal B tumor patients (setting [19]) and 87% in the data set on luminal B tumor patients (setting [20]). Besides, the “HR, DMFS” value in the data set on luminal B tumor patients (FIG. 12A, luminal B defined by RT-qPCR, docetaxel-FEC vs vinorelbine-FEC) was 0.471; in the data set on luminal B tumor patients (FIG. 12B, luminal B defined by IHC, docetaxel-FEC vs vinorelbine-FEC) it was 0.938.
vinorelbine: the overall survival stood at 89% in [1] (setting [18]) and 92% in data set [1] (setting [6]). Further, the “distant metastasis free survival (DMFS)” value was determined as 78% in the data set on luminal B tumor patients (setting [19]) and 86% with luminal B tumor patients (setting [20]).

The record behind these values is patent publication US10808283B2, “Methods and kits for the molecular subtyping of tumors” (BioNTech Diagnostics GmbH, priority 2013, dated 2020).
